Source: US12590099B2, “Inhibitors of histone deacetylase useful for the treatment or prevention of HIV infection” (Merck Sharp & Dohme LLC, priority 2018, dated 2026)

Key:
Assay type in all cases: biochemical
[1] = molecular target: T1, Recombinant human HDAC1 (Homo sapiens, UniProt Q13547); experiment: Human HDAC enzyme inhibitor Fluor-de-Lys assay, HDAC1
T1 construct: FLAG (C); made in house
Procedure: (§1) Human HDAC Enzyme Inhibitor Fluor-De-Lys Assay
(§2) Recombinant human HDAC8 (BML-SE145-0100) and HDAC10 (BML-SE559-0050) enzymes, HDAC substrates BML-KI104 and BML-KI178, and HDAC developer solutions BML-KI105 and BML-KI176 were purchased from Enzo Life Sciences. […] HDAC inhibitor suberoylanilide hydroxamic acid (SAHA) was obtained from Indofine and trichostatin A (TSA) was obtained from Sigma-Aldrich.
(§3) Recombinant human HDAC1, HDAC2, and HDAC3/SMRT heterodimer were prepared by Merck Research Laboratories. […] The eluted protein was then passed over an anti-HDAC1 immunoaffinity column to remove any complexes containing HDAC1. […]
(§4) The histone deacetylase activities of HDAC1, HDAC2, HDAC3, HDAC6, and HDAC8 were measured in modified FLUOR DE LYS assays in 384-well format. In this assay, HDAC enzymes are initially incubated with an ε-acetyl (or -trifluoroacetyl)-L-lysine-containing substrate with a C-terminal amide having aminomethylcoumarin as the amine component. HDACs cleave the ε-acetyl group, rendering the resulting product susceptible to AMC cleavage by trypsin. The released AMC is then detected by its fluorescence.
(§5) The HDAC3/SMRT assay employed buffer B, consisting of 20 mM HEPES, pH 8.0, 1 mM MgCl2, 50 mM NaCl, 2.7 mM KCl, 0.05% BSA, 0.005% Tween 20, and 10 μM IP4. […] The HDAC8 assay employed buffer D, consisting of 20 mM HEPES, pH 8.0, 1 mM MgCl2, 100 mM NaCl, 20 mM KCl, 0.10% n-octyl-β-D-glucoside (Anatrace) and 0.05% BSA. All steps were performed at room temperature (23° C.). The assay was performed by pre-incubating serial dilutions of test compounds with the target HDAC prior to initiation with substrate. Each compound was titrated in a 10-point dose response, using a 1:3 fold dilution scheme, with 0.15 ul of solution added by ECH0555 to the plate, followed by the addition of 20 μl of the appropriate HDAC isoform diluted in appropriate assay buffer. […] Final conditions used for each assay were: 1. HDAC 1, 0.3 nM total enzyme, 20 μM substrate BML-KI104; 2. […] HDAC 3/SMRT, 0.3 nM total enzyme, 20 μM substrate BML-KI104; 4. […] The reactions were stopped and developed by addition of 30 ul of HDAC developer solution containing a saturating level of HDAC inhibitor as follows: 1.

[2] = molecular target: T2, Recombinant human HDAC2 (Homo sapiens, UniProt Q92769); experiment: Human HDAC enzyme inhibitor Fluor-de-Lys assay, HDAC2
T2 construct: Full length human HDAC2-FLAG was expressed in baculovirus infected Sf9 cells; FLAG (C); made in house; host or cells: Sf9 (baculovirus)
T2 sequence (Q92769 whole entry): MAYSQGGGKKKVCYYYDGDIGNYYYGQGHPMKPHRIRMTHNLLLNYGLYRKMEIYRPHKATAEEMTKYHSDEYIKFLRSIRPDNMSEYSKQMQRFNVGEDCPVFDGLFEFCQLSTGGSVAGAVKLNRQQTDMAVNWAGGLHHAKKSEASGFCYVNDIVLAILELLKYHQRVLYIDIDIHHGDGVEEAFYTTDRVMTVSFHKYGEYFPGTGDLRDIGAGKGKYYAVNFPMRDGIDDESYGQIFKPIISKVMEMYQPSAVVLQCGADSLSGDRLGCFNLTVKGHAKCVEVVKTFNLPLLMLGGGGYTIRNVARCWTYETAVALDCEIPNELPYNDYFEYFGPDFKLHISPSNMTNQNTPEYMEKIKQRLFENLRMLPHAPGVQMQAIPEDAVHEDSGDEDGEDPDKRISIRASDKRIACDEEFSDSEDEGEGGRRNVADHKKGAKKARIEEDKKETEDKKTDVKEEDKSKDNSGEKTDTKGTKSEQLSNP
Procedure: as §1, §2, §3, §4, §5

[3] = molecular target: T3, Recombinant human HDAC3/SMRT heterodimer (Homo sapiens, UniProt O15379); experiment: Human HDAC enzyme inhibitor Fluor-de-Lys assay, HDAC3/SMRT
T3 construct: FLAG (C); made in house
T3 sequence (O15379 whole entry): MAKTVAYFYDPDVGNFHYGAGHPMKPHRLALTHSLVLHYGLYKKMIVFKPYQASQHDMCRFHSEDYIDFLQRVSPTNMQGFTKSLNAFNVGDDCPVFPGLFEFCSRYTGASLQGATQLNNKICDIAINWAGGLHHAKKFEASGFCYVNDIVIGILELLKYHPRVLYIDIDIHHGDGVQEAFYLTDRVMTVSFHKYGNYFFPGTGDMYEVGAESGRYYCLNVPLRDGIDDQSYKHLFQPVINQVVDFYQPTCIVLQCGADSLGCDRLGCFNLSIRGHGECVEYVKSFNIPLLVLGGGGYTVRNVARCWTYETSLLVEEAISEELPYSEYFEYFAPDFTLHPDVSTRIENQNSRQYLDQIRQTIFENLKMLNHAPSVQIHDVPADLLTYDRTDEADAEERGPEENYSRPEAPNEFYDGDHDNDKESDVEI
T3 sequence (Q9Y618 1-899 partner limits assumed): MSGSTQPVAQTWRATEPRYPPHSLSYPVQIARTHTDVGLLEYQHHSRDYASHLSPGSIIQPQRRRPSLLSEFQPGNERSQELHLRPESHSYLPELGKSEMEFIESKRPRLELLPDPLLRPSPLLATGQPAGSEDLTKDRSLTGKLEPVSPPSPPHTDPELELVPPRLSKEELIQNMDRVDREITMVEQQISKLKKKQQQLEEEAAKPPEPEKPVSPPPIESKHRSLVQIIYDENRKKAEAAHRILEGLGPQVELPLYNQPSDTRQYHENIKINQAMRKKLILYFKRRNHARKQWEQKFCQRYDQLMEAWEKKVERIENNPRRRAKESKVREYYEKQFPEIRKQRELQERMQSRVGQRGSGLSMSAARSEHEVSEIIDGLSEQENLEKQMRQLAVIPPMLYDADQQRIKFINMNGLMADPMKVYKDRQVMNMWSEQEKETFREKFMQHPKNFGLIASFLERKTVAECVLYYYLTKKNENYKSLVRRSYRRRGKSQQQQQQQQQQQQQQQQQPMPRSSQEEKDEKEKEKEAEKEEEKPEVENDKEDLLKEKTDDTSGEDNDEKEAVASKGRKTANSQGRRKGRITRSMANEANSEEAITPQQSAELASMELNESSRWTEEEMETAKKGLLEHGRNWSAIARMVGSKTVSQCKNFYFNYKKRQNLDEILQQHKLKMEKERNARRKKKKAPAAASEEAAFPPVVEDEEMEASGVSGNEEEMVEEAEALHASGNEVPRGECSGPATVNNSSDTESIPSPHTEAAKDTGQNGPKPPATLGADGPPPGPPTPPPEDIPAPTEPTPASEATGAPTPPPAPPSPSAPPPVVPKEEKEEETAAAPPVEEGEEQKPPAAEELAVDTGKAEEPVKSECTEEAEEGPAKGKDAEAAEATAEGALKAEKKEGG

[4] = molecular target: T4, HDAC6 (Homo sapiens, UniProt Q9UBN7); experiment: Human HDAC enzyme inhibitor Fluor-de-Lys assay, HDAC6
T4 sequence (Q9UBN7 1-1215): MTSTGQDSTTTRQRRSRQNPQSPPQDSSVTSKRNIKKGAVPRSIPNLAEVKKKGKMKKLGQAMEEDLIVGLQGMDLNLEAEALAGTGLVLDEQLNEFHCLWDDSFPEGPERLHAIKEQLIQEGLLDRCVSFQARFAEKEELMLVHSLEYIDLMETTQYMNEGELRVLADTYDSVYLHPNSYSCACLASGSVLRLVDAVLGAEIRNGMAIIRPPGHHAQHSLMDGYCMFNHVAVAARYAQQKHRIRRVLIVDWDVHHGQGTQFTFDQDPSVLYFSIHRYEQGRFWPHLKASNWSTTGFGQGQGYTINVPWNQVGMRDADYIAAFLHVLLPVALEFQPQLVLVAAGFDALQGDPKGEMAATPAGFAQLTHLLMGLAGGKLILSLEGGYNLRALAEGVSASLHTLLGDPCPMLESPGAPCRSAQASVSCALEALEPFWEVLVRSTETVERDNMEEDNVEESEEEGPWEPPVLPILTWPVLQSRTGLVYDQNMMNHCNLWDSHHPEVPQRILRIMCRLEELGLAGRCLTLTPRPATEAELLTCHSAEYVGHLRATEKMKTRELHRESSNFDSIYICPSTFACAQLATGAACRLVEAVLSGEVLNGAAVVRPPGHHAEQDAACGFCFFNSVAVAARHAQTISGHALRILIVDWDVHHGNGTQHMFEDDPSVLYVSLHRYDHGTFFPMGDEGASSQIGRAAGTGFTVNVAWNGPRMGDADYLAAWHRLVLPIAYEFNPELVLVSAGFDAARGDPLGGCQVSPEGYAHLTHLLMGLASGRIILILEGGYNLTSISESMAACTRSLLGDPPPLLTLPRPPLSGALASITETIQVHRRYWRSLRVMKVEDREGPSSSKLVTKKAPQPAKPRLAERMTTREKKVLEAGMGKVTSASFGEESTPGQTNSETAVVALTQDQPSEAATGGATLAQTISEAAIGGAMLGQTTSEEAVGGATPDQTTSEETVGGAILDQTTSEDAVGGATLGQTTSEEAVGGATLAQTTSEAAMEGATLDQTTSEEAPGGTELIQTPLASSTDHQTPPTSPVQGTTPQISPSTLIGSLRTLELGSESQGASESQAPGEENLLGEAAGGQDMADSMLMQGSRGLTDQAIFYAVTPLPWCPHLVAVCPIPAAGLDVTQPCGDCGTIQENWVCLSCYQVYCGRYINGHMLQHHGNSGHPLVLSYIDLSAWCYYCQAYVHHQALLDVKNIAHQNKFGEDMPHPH

[5] = molecular target: T5, Recombinant human HDAC8 (Homo sapiens, UniProt Q9BY41); experiment: Human HDAC enzyme inhibitor Fluor-de-Lys assay, HDAC8
T5 construct: purchased Enzo Life Sciences BML-SE145-0100
T5 sequence (Q9BY41 1-377): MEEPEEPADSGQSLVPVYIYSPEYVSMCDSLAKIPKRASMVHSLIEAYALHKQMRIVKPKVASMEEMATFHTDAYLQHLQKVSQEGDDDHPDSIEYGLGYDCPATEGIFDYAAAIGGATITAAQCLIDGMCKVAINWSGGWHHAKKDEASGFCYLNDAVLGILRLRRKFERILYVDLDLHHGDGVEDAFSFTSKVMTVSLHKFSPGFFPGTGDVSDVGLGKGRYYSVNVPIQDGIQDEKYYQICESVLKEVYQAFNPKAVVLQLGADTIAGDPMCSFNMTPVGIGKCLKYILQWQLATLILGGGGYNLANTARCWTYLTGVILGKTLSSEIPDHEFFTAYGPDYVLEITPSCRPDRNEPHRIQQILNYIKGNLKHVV

T1 sequence (Q13547 whole entry): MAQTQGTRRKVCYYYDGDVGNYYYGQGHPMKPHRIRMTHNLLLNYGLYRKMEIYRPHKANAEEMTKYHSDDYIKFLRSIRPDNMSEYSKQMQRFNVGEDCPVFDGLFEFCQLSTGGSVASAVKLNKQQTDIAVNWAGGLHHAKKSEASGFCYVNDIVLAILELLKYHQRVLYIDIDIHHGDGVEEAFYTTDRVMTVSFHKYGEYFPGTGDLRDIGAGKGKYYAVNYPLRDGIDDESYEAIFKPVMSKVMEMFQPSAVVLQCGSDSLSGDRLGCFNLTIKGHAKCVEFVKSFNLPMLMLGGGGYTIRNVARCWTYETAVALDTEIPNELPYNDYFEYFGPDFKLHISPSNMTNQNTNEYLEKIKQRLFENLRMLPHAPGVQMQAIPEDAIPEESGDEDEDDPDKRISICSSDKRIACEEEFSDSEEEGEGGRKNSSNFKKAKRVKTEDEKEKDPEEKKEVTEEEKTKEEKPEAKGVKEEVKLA

Structure (SMILES)	IC50 [1] [µM]	IC50 [2] [µM]	IC50 [3] [µM]	IC50 [4] [µM]	IC50 [5] [µM]
CCC(=O)CCCCC[C@H](NC(=O)[C@H]1CC[C@]2(CC1)OC(=O)c1ncccc12)c1ncc(-c2cc3ccccc3nc2OC)[nH]1 [Compound 141]	0.0122	0.0384	0.00198	1.49	2.11
CCC(=O)CCCCC[C@H](NC(=O)C1(C)CC12CCN(C(C)C)CC2)c1ncc(-c2ccc3nc(C)ccc3c2)[nH]1 (single isomer, unassigned) [Compound 152, (1S or 1R)-1-methyl-6-(1-methylethyl)-N-{(1S)-1-[5-(2-methylquinolin-6-yl)-1H-imidazol-2-yl]-7-oxononyl}-6-azaspiro[2.5]octane-1-carboxamide]	0.00094	0.004	0.00085	19.2	5.06
CCC(=O)CCCCC[C@H](NC(=O)[C@H]1CC12CCN(CC)CC2)c1nc(-c2cc3ccc(C)nc3cc2OC)cn1COC(=O)C(C)(C)C [Compound 215, {2-[(1S)-1-({[(1S)-6-ethyl-6-azaspiro[2.5]oct-1-yl]carbonyl}amino)-7-oxononyl]-4-(7-methoxy-2-methylquinolin-6-yl)-1H-imidazol-1-yl}methyl 2,2-dimethylpropanoate]	0.00089	0.004	0.00115	> 0.9	> 0.9
CCN1CCC2(CC1)C[C@@H]2C(=O)N[C@@H](CCCCCC(=O)CC1CC1)c1ncc(-c2cc3ccc(C)nc3cc2OC)[nH]1 [Compound 165]	0.00118	0.008	0.00214	11.9	14.7
CCC(=O)CCCCC[C@H](NC(=O)C1=NOC2(CCN(C)CC2)C1)c1ncc(-c2cc3ccccc3nc2OC)[nH]1 [Compound 105]	0.00092	0.0053		1.51	2.89
CCC(=O)CCCCC[C@H](NC(=O)[C@H]1CC12CCN(C)CC2)c1ncc(-c2ccc3c(c2)C2CCC3C2)[nH]1 (stereo partly shown) [Compound 74]	0.00821	0.0362	0.00374	7.85	4.53
CCC(=O)CCCCC[C@H](NC(=O)[C@H]1CC12CCN(C)CC2)c1ncc(-c2ccc3nc(C4CC4)ccc3c2)o1 [Compound 121]	0.00139	0.0044	0.00116	4.81	15.3
CCC(=O)CCCCC[C@H](NC(=O)C1CC12CCN(C)C(C)(C)C2)c1ncc(-c2ccc3nc(C)ccc3c2)[nH]1 (single isomer, unassigned) [Compound 131]	0.00048	0.0025	0.00057	2.28	2.77
CCC(=O)CCCCC[C@H](NC(=O)C1CN(C)C1)c1ncc(-c2ccc3c(c2)C2CCC3C2)[nH]1 (stereo partly drawn) [Compound 73, 1-methyl-N-{(1S)-7-oxo-1-[5-(1,2,3,4-tetrahydro-1,4-methanonaphthalen-6-yl)-1H-imidazol-2-yl]nonyl}azetidine-3-carboxamide]	0.031	0.138	0.00957	6.51	3.07
CCC(=O)CCCCC[C@H](NC(=O)C1CC12CCN(C)C(C)(C)C2)c1ncc(-c2ccc3nc(C)ccc3c2)[nH]1 (single isomer, unassigned) [Compound 132]	0.00233	0.0065	< 0.0015	3.68	8.06
CCC(=O)CCCCC[C@H](NC(=O)C1=NOC2(CCN(C)CC2)C1)c1ncc(-c2cc3ccc(C)nc3cc2OC)o1 [Compound 196]	0.00142	0.006	0.00073	0.759	> 0.9
CCC(=O)CCCCC[C@H](NC(=O)[C@H]1CC12CCN(C)CC2)c1ncc(-c2ccc(C3CC3)nc2)[nH]1 [Compound 139]	0.00528	0.0261	0.00239	4.45	12
CCC(=O)CCCCC[C@H](NC(=O)CN1CCC2(CC1)CC2)c1ncc(-c2ccc3nn(C)cc3c2)[nH]1 [Compound 155]	0.00691	0.0184	0.00205	8.94	8.13
CCC(=O)CCCCC[C@H](NC(=O)[C@H]1CC[C@]2(CC1)OC(=O)c1cccnc12)c1ncc(-c2ccc3nc(C4CC4)ccc3c2)o1 [Compound 123]	0.0348	0.0946	0.00759	> 15	> 15
CCC(=O)CCCCC[C@H](NC(=O)[C@H]1CC12CCN(C)CC2)c1ncc(-c2cc3ccccc3nc2OC)o1 [Compound 125]	< 0.0015	0.0056		0.254	23.4
CCC(=O)CCCCC[C@H](NC(=O)[C@H]1CC12CCN(C)CC2)c1ncc(-c2cnc3cccnc3c2)[nH]1 [Compound 67]	0.0196	0.101		1.28	2.59
CCC(=O)CCCCC[C@H](NC(=O)[C@H]1CC12CCN(CC1CC1)CC2)c1ncc(-c2cc3ccc(=O)n(C)c3cc2OC)o1 [Compound 199]	0.00035	0.0013		0.216	0.3
CCC(=O)CCCCC[C@H](NC(=O)[C@H]1CC12CCN(C)CC2)c1ncc(-c2cc3ccccc3nc2OC)o1 [Compound 77]	0.00153	0.0048		0.198	21.7
